How the values were obtained:
leucaemia L1210 = test: Antitumor effect at animals with leucaemia L1210, continual regimen (Example 7); format: in vivo, mice DBA2; settings: for Survival (in % of control) / Survival time, Geom. mean: 1th-9th day
[1] = tested on: mammal adenocarcinoma MC2111; test: Antitumor effect at animals with solid form of mammal adenocarcinoma MC2111 (Example 9); format: in vivo, mice DBA1; settings: 5th-13 day; for Tumor mass (%) of control / Tumor mass, Arithm. mean: tumor size 14th day, mass from regression
[2] = tested on: ascitic form of Ehrlich tumor (ATE); test: Antitumor effect at animals with ascitic form of Ehrlich tumor (ATE) (Example 11);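 as to all read-outs here: half of each dose group killed on day 10, tumor mass taken as animal mass lost on ascites aspiration, ascitocrit by microhematocrit centrifuge, rest followed daily for survival versus reference group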; settings: for Survival (in % of control) / Survival time, Geom. mean / Total ascitocrit (%) of control / Total ascitocrit (mass of cell fraction of a tumor), Arithm. mean / Tumor mass (%) of control / Tumor mass, Arithm. mean: 1th-9th day; for Total ascitocrit (%) of control / Total ascitocrit (mass of cell fraction of a tumor), Arithm. mean / Tumor mass (%) of control / Tumor mass, Arithm. mean: dissection 10th day
Procedure: After termination of application, one half of animals in each dosage group was destroyed at 10th day after inoculation in ether narcosis, the ascits were sucked out after laparotomy and the mass of a tumor at each of the animals was determined from the difference of mass before and after sucking out the ascit. Ascitocrit in ascitic liquor of single animals was determined on microhematocrit centrifuge in heparinized capillary tubes of 75 mm length. The value of “total ascitocrit”corresponding to a mass of cells in ascitic liquor has been determined from percentage of ascitocrit and mass of the tumor. Remaining animals were left for monitoring the survival time. In these animals, the survival time was monitored on daily basis. The dependence of the survival time value on the applied dose was evaluated in comparison with the reference group.
The single estimated time points as biological responses were evaluated by a test of equivalence of two mean values (Student's t-test). Geometric mean was calculated from single values of survival time, arithmetic means were calculated from single values of tumor mass and total ascitocrit. Difference between mean values was evaluated by a test of equivalence of two mean values (Student's t-test) under presumption of normal probability distribution of mass values as well as of total ascitocrit values and of logarithmic/normal distribution of temporal values, all under presumption of possible unknown disseminations. Those diferences in mean values, whose values of a test criterium exceeded the critical value at the 5% and 1% significance level were evaluated as statistically significant and highly statistically significant, respectively.
The optimum dosage has been calculated from values of survival time according to the proportional risk model of Cox (Carter et al., 1982). Parameters of Weinbull distribution and logarithmic transformation of introductory data were used for estimation of a basic and modified survival function from experimental data.

## CC(=O)[O][Pt]([NH2])([Cl])([Cl])([NH]C12CC3CC(C)(CC(C)(C3)C1)C2)[O]C(C)=O [LA-15, af-bis(Acetato)-b-(1amino-3.5-dimethyladamantane)-c-ammin-de-dichloroplatinum (IV) Complex]
Leucaemia L1210; 3 mg/kg/day p.o. 9x
  Survival (in % of control): 180%
  Survival time, Geom. mean: 40.5 days
Leucaemia L1210; 6 mg/kg/day p.o. 9x
  Survival (in % of control): 217%
  Survival time, Geom. mean: 48.8 days
Leucaemia L1210; 12 mg/kg/day p.o. 9x
  Survival (in % of control): 130%
  Survival time, Geom. mean: 29.3 days
Leucaemia L1210; in the dosages used, p.o.×9
  Evaluation of antitumor effect (survival time versus control), in words: antitumor effective
  Increase of survival time value in comparison with the control group: 130%
[1]; 3 mg/kg/day p.o. 9x
  Survival (in % of control): 117%
  Survival time, Geom. mean: 25.4 days
  Tumor mass (%) of control: 90%
  Tumor mass, Arithm. mean: 4.19 g
[1]; 6 mg/kg/day p.o. 9x
  Survival (in % of control): 127%
  Survival time, Geom. mean: 27.6 days
  Tumor mass (%) of control: 85%
  Tumor mass, Arithm. mean: 3.95 g
[1]; 12 mg/kg/day p.o. 9x
  Survival (in % of control): 118%
  Survival time, Geom. mean: 25.5 days
  Tumor mass (%) of control: 80%
  Tumor mass, Arithm. mean: 3.74 g
[2]; 3 mg/kg/day p.o. 9x
  Survival (in % of control): 99%
  Survival time, Geom. mean: 8.8 days
  Total ascitocrit (%) of control: 123%
  Total ascitocrit (mass of cell fraction of a tumor), Arithm. mean: 0.84 g
  Tumor mass (%) of control: 89%
  Tumor mass, Arithm. mean: 3.51 g
[2]; 6 mg/kg/day p.o. 9x
  Survival (in % of control): 108%
  Survival time, Geom. mean: 9.6 days
  Total ascitocrit (%) of control: 59%
  Total ascitocrit (mass of cell fraction of a tumor), Arithm. mean: 0.40 g
  Tumor mass (%) of control: 53%
  Tumor mass, Arithm. mean: 2.08 g
[2]; 6 mg/kg/day p.o.×9
  Mean value of the mass of cell fraction of the tumor (total ascitocrit) versus control, in words: statistically significant lower
[2]; 12 mg/kg/day p.o. 9x
  Survival (in % of control): 97%
  Survival time, Geom. mean: 8.6 days
  Total ascitocrit (%) of control: 120%
  Total ascitocrit (mass of cell fraction of a tumor), Arithm. mean: 0.82 g
  Tumor mass (%) of control: 96%
  Tumor mass, Arithm. mean: 3.77 g
[2]; p.o.×9, Platidiam 8 and 4 mg/kg s.c.×1, Tab. 8.1
  Evaluation of antitumor effect (survival time versus control), in words: didnot increase the survival time statistically significant

Source: patent US6503943B1, “Platinum complex, its preparation and therapeutic application” (priority 1998, dated 2003)
